Here are results for two compounds from PMC11695783 (Frontiers in Pharmacology, 2024).

Data set [1] relates to mice. Details: method as in EMA, 1999. To be noted: administered intravenously, ref EMA, 1999; cited from earlier work.
Data set [2] concerns mice. The conditions noted are these: acute oral toxicity, ref EMA, 1999, cited from earlier work.
The test system of data set [3] is ICR strain mice. The data set is described as follows: Acute toxicity study, oral gavage. The format is in vivo. The protocol:
Twenty four male and female SPF-grade ICR strain mice were randomly divided into 6 groups of 4 mice each. Compound 16C was dissolved in DMSO at doses of 0, 8, 40, 200, 1,000, and 5,000 mg/kg and was administered to the mice by gavage.
(§1) Ten mice were gavaged with 5,000 mg/kg of compound 16C and another 10 mice were given DMSO orally as a control. The mice were fed and watered ad libitum. The animals’ appearance, diet, behavior, and death were observed and recorded for 14 consecutive days after administration. The LD50 was calculated as previously described ([Xiao et al., 2019]), and the test was repeated twice. To assess the acute toxicity of intramuscular administration in mice, we repeated the above experiment and replaced gavage with intramuscular injection.

In data set [4] the test system is ICR strain mice. The experiment in a line: Acute toxicity study, intramuscular injection. The format is in vivo. The protocol: as §1
Data set [5] can be described thus: Pharmacokinetic studies in mice (intravenous and intramuscular, plasma, HPLC-MS/MS). The class given is in vivo, BALB/c mice. Details: AUClast / AUCall / AUCINF_obs / AUCINF_pred / AUCINFobs: concentration or dose not given beside the values. To be noted: for F / Ka / Kel / T1/2ka / T1/2kel / Tmax / Cmax / AUC0-∞ / Cl / Vd / C0: mice; for AUCINFobs / AUClast / AUClast/AUCINFobs ratio / AUC0-t/AUC0-∞ ratio (AV): non-compartment model; for AUCINFobs / AUClast / AUClast/AUCINFobs ratio: individual mice; for AUC0-t/AUC0-∞ ratio (AV): mean. The protocol:
Pharmacokinetic experimental procedures of compound 16C were measured according to previous reports with some modifications ([Wang et al., 2022]). In brief, BALB/c mice were divided into two groups of eight mice each; one group was injected intravenously and the other was injected intramuscularly with compound 16C at a dose of 10 mg/kg. The dose was based on previous studies of novel pleuromutilin derivatives ([Jin et al., 2019]; [Wang et al., 2022]). Meanwhile, the dose of tiamulin approved by the European Union for intramuscular administration is 10–20 mg/kg ([EMA, 1999]). The volume of the injection was 0.1 mL/10 g. The compound 16C formulation was a filtered solution in 5% DMSO, 5% Tween-80, and 90% normal saline. Blood was obtained from eight mice via the ocular venous plexus at 0.083, 0.167, 0.25, 0.334, 0.5, 0.75, 1, 1.5, 2, 3, 4, 6, 8, and 12 h following tail intravenous or thigh Intramuscular injection. A glass capillary with a diameter of 0.3 mm was inserted into the outer canthus of the mouse, and 200 μL blood was collected using a 1.5 mL anticoagulant centrifuge tube. The blood was centrifuged at 3,000 rpm for 10 min to obtain plasma. 100 μL of plasma was aspirated for drug concentration detection, and eight parallel samples from different mice were obtained at each time point.
All pharmacokinetic experimental samples and method validation samples were added with 4 times the volume of acetonitrile and shaken for 1 min, centrifuged at high speed at 13,000× g for 10 min, and the supernatants were taken and filtered to detect the drug concentration. Some samples with high concentrations were diluted to the linear range prior to analysis.
The extracted samples were analyzed using a high-performance liquid chromatography-tandem mass spectrometry (HPLC-MS/MS) system (Agilent, Santa Clara, CA, United States) 1200 HPLC and Applied Biosystems (Waltham, MA, United States) API 4000 mass spectrometer). HPLC-MS/MS analysis using a Zorbax Eclipse XDB-C18 (4.6 × 50 mm, 3.5 μm) column (Agilent). The mobile phase A (acetonitrile) and B (water) were applied as a gradient as follows: 0–3 min: 15%–95% A and maintain from 3 min to 5 min at 95% A. 5–5.1 min: 95%–15% A and maintain from 5.1 to 10 min at 15% A. Flow rate: 500 μL/min; column temperature: 30°C and injection volume: 4 μL. The electrospray ionization (ESI) source of the mass spectrometer was operated in […], with the following ion source parameters: ion spray voltage 4,500 V, collision gas 7 psi, ion source gas 1 55 psi, ion source gas 2 40 psi, curtain gas 20 psi, source temperature 600°C. The precursor ion m/z of Compound 16C was 633.3, and the product ions m/z were 272.0 (quantifier) 286.9 and 313.0. Declustering potentials (DP) were 140, 140, and 144 V, respectively; entrance potential (EP) was 10 V; collision energy (CE) was 55, 46, and 15 V, respectively; and collision cell exit potential (CXP) was 14 V.
[…] Pharmacokinetic parameters include time to maximum concentration (Tmax), maximum concentration (Cmax), the area under the plasma concentration–time curve (AUC0-∞), clearance rate (CL), the apparent volume of distribution (Vd), bioavailability (F), elimination half-life (T1/2kel) and absorption half-life (T1/2ka).

Data set [6] relates to RAW 264.7. Details: method as in PMID 26150841. To be noted: RAW 264.7, 8 μg/mL, compared with the control drugs; ref [30]; cited from earlier work.
The subject of data set [7] is A549. Details: method as in PMID 26150841. To be noted: A549, 8 μg/mL, compared with the control drugs; ref [30]; cited from earlier work.

SMILES strings stand for the structures. Several values for one entry are separate records, joined by “and”; a condition that tells them apart may be missing. Equal entries are not always repeated. Where two headings read alike, the source gives them in different places.

For orientation: LD50 means the dose at which mortality reaches 50%. Turning to `C=C[C@]1(C)C[C@@H](OC(=O)CSCCN(CC)CC)[C@]2(C)[C@H](C)CC[C@]3(CCC(=O)[C@H]32)[C@@H](C)[C@@H]1O` [tiamulin, Tiamulin, reference compound], the LD50 is 50 mg/kg in data set [1], 650 mg/kg in data set [2] (female mice) and 770 mg/kg in data set [2] (male mice).

By Tmax is commonly meant the time at which the peak concentration occurs. For orientation: Cmax means the highest concentration seen after dosing. Take `C=CC1(C)CC(OC(=O)CSc2ccc(NC(=O)Cc3ccc([N+](=O)[O-])cc3)cc2)C2(C)C(C)CCC3(CCC(=O)C32)C(C)C1O` (stereo not drawn) [compound 16C, 22–((4-((4-nitrophenyl)acetamido)phenyl)thio)deoxypleuromutilin]: in data set [3] (gavage 8, 40, 200, 1,000, and 5,000 mg/kg in DMSO, observed 14 d), the “deaths (pre-test)” value is listed as “no deaths were observed”. The mouse deaths entry in data set [3] (oral gavage, single dose of 5,000 mg/kg, after 2 weeks) is given as “did not result in any mouse deaths”; in data set [4] (single dose of 5,000 mg/kg, after 2 weeks) it was “did not result in any mouse deaths”. In addition, the LD50 in data set [3] (oral gavage, single dose, mice, observed 14 d) is > 5,000 mg/kg; in data set [4] (single dose, mice, observed 14 d), > 5,000 mg/kg. The symptoms observed result in data set [3] (single dose of 5,000 mg/kg, oral gavage or intramuscular injection, mice rapidly recovered) was “anorexic symptoms”. Moreover, the F in data set [5] (IM 10 mg/kg) worked out at 71.29 ± 19.34%; in data set [5] (IM(10mg/kg), n=8), 71.29±19.34%. The Ka in data set [5] (IM 10 mg/kg) turned out to be 14.41 ± 7.76 h⁻¹; in data set [5] (IM(10mg/kg), n=8), 14.41 ± 7.76 h⁻¹. Also, the Kel in data set [5] (IM 10 mg/kg) stood at 0.33 ± 0.07 h⁻¹; in data set [5] (IV 10 mg/kg), 0.41 ± 0.14 h⁻¹; in data set [5] (IM(10mg/kg), n=8), 0.33 ± 0.07 h⁻¹; in data set [5] (IV(10mg/kg), n=8), 0.41 ± 0.14 h⁻¹. Further, the T1/2ka in data set [5] (IM 10 mg/kg) is 3.6 ± 1.8 min; in data set [5] (IM 10 mg/kg, listed as Compound 16C), 3.6 min; in data set [5] (IM(10mg/kg), n=8) it was 3.6 ± 1.8 min. The T1/2kel in data set [5] (IM 10 mg/kg) was 2.20 h and 2.20 ± 0.52 h; in data set [5] (IV 10 mg/kg, 10 mg/kg), 1.89 h and 1.89 ± 0.61 h; in data set [5] (IM(10mg/kg), n=8) it was 2.20 ± 0.52 h; in data set [5] (IV(10mg/kg), n=8), 1.89 ± 0.61 h. For the same compound, the Tmax in data set [5] (IM 10 mg/kg) turned out to be 0.24 ± 0.09 h; in data set [5] (IM(10mg/kg), n=8), 0.24 ± 0.09 h. Besides, the Cmax in data set [5] (IM 10 mg/kg, n = 8) is 500 ± 110 ng/mL; in data set [5] (IM(10mg/kg), n=8) it was 500 ± 110 ng/mL. Also, the “AUC0-∞” value worked out at 1070 ± 230 ng·h/mL in data set [5] (IM 10 mg/kg, two-compartmental model); 1560 ± 370 ng·h/mL in data set [5] (IV 10 mg/kg, two-compartmental model); 1070 ± 230 ng·h/mL in data set [5] (IM(10mg/kg), n=8); 1560 ± 370 ng·h/mL in data set [5] (IV(10mg/kg), n=8). Besides, the AUCINFobs in data set [5] (IM) is 805.258 and 1373.07 and 1092.7 and 1076.67 and 1204.87 and 1450.76 and 1023.1 and 1087.9; in data set [5] (IV), 1454.8 and 1871.31 and 1501.72 and 1496.6 and 2594.18 and 1752.1 and 2317.09 and 1731. The AUClast is 801.322 and 1354.01 and 1070.85 and 1055.33 and 1188.66 and 1432.45 and 925.896 and 1050.1 in data set [5] (IM); 1441.26 and 1869.35 and 1488.47 and 1490.96 and 2574.6 and 1734.84 and 2287.49 and 1712.29 in data set [5] (IV). Moreover, the AUClast/AUCINFobs ratio in data set [5] (IM) is 99.5113% and 98.6117% and 98.0006% and 98.0177% and 98.6551% and 98.7381% and 90.4989% and 96.5252%; in data set [5] (IV), 99.0694% and 99.8954% and 99.1179% and 99.6229% and 99.2455% and 99.0149% and 98.7227% and 98.9189%. The “AUC0-t/AUC0-∞ ratio (AV)” value in data set [5] (IM) is 97.32% and 97.3198%; in data set [5] (IV) it was 99.20% and 99.2009%. The Cl was determined as 112 ± 27.8 mL/min/kg in data set [5] (IV 10 mg/kg) and 112 ± 27.8 mL/min/kg in data set [5] (IV(10mg/kg), n=8). The Vd in data set [5] (IV 10 mg/kg) was found to be 3.55 ± 1.32 L/kg; in data set [5] (IV(10mg/kg), n=8), 3.55 ± 1.32 L/kg. Besides, the C0 in data set [5] (IV 10 mg/kg, n = 8) came out at 5580 ± 1250 ng/mL; in data set [5] (IV(10mg/kg), n=8), 5580 ± 1250 ng/mL. Moreover, the “influence on cell viability” value in data set [6] and in data set [7] was “only slight influences on the viability” each time.
